In brackets after ≈: the same amount, converted by molar mass. Activity calls are given as the source filed them. The calls are words filed in the database; no cut-off is given here.
Assays:
CEM-SS = assay: Cytotoxicity against human CEM-SS cells; assay type: cell-based
[1] = test system: Human immunodeficiency virus 1; assay: Antiviral activity against HIV1; assay type: functional, organism-based

CC(C)=CCc1c(O)c(CC=C(C)C)c2oc3c(O)cccc3c(=O)c2c1O [8-DEOXYGARTANIN]
IC50 (CEM-SS): 4.9 µg/mL (≈ 12.9 µM)
Activity [1]: inactive

CC(C)=CCc1c(O)cc2oc(-c3ccc(O)cc3O)c(CC=C(C)C)c(=O)c2c1O [CUDRAFLAVONE C]
IC50 (CEM-SS): 5 µg/mL (≈ 11.8 µM)
Activity [1]: inactive

CC(C)=CCc1c(-c2ccc(O)cc2O)oc2cc3c(c(O)c2c1=O)CCC(C)(C)O3 [DIHYDROCUDRAFLAVONE B]
IC50 (CEM-SS): 12 µg/mL (≈ 28.4 µM)
Activity [1]: inactive

CC(C)=CCc1c(O)c(CC=C(C)C)c2oc3c(O)ccc(O)c3c(=O)c2c1O [GARTANIN]
IC50 (CEM-SS): 5.3 µg/mL (≈ 13.4 µM)
Activity [1]: inactive

CC(C)=CCc1c(O)cc2oc3c(c(=O)c2c1O)C(C=C(C)C)Oc1cc(O)ccc1-3 (centres undefined) [ISOCYCLOMULBERRIN]
IC50 (CEM-SS): 17 µg/mL (≈ 40.4 µM)
EC50 [1]: 7.5 µg/mL (≈ 17.8 µM)

C=CC(C)(C)c1c(O)c(CC=C(C)C)c2oc3cc(O)c(O)cc3c(=O)c2c1O [MACLURAXANTHONE B]
IC50 (CEM-SS): 2.2 µg/mL (≈ 5.55 µM)
EC50 [1]: 1 µg/mL (≈ 2.52 µM)

C=CC(C)(C)c1c(O)c(CC=C(C)C)c2oc3c(O)c(O)ccc3c(=O)c2c1O [MACLURAXANTHONE C]
IC50 (CEM-SS): 3.7 µg/mL (≈ 9.33 µM)
EC50 [1]: 1.3 µg/mL (≈ 3.28 µM)

Source: ChEMBL document CHEMBL1155627, “HIV-Inhibitory prenylated xanthones and flavones from Maclura tinctoria” (J Nat Prod, 2000)
